Measured values published in patent publication US20230310399A1, “COMBINATORIAL THERAPEUTIC SYSTEMS AND METHODS THAT INCLUDE SYSTEMIC, CENTRALLY AND PERIPHERALLY ACTING ANALGESICS” (COGNIFISENSE, INC., priority 2020, published 2023).
“Also recorded” adds a separate entry of the source.

Tested on: patient's amount of pain
Assay: Potential patient responses to combinatorial therapy: amount of pain over time (FIGS. 5A-5C)
Format: in vivo, patients
Settings: combinatorial therapeutic system with VRNT; potential individual patient responses
From the text: FIGS. 5A-5C illustrate exemplary graphs of potential effects of combinatorial therapeutic systems/methods employing oliceridine and VRNT on a patient's amount of pain over time; and
The synergistic effects of the disclosed combinatorial therapeutic systems/methods can be exemplified in a plurality of responses. For example, FIGS. 5A-5C illustrate a combinatorial therapy using oliceridine (as the systemic, centrally and peripherally acting analgesic) and VRNT (as the artificial sensory experience) with different potential patient responses. As many, if not all, patients may experience the synergistic benefits afforded by the disclosed combinatorial therapeutic systems/methods as an average benefit, the individual-specific responses may be different.

## COc1ccsc1CNCC[C@@]1(c2ccccn2)CCOC2(CCCC2)C1 [oliceridine]
  patient's amount of pain over time: constant or linear decrease in pain over time; also recorded: cyclical decrease and increase in pain levels over time with an overall decreasing pain level; also recorded: stepwise reduction in pain levels
